A short description of series [1]: Half life in Sprague-Dawley rat at 1 mg/kg, iv and 2 mg/kg, po. It counts as ADME, organism-based. To be noted: in vivo.
Series [2] addresses T1, Sphingosine 1-phosphate receptor 4 (Homo sapiens, UniProt O95977).
T1 sequence (O95977 whole entry): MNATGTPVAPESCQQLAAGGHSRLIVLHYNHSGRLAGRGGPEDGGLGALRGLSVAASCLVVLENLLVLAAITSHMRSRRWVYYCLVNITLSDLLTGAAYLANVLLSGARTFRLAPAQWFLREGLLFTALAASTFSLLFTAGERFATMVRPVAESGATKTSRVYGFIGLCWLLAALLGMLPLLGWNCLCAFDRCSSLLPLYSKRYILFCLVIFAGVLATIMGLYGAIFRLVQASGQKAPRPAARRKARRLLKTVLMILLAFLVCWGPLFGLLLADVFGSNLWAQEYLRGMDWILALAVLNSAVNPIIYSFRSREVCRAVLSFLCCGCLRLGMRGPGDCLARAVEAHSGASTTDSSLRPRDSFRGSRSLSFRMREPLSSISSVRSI
The experiment in a line: Activity at S1P4 receptor expressed in CHO cells measured as S1P-induced [35S]GTP-gamma-S uptake. The format is functional, cell-based. For orientation: GTPγS is a poorly hydrolysed GTP analogue; its binding reports G protein activation.

In a further series the test system is Mus musculus. Description: Lowering of peripheral blood lymphocyte in mouse at 0.3 mg/kg, po relative to control. The format is functional, organism-based. Set-up: dose 0.3 mg/kg.
Series [3] relates to Rattus norvegicus. Description: Lowering of peripheral blood lymphocyte in Lewis rat at 1.5 mg/kg/day, ip via osmotic pump.
Series [4] has as its system Rattus norvegicus. The experiment in a line: Lowering of peripheral blood lymphocyte in Lewis rat at 4.5 mg/kg. The format is functional, organism-based. Set-up: dose 4.5 mg/kg.
The species named for series [5] is Homo sapiens. Description: Selectivity for S1P1 receptor over S1P5 receptor.
The species entered for series [6] is Homo sapiens. Description: Selectivity for S1P1 receptor over S1P3 receptor.
A short description of series [7]: Oral bioavailability in Sprague-Dawley rat at 1 mg/kg, iv and 2 mg/kg, po. It counts as ADME, organism-based. To be noted: in vivo.
In series [8] the target is Sphingosine 1-phosphate receptor 3 (Homo sapiens, UniProt Q99500). The experiment in a line: Agonist activity at S1P3 receptor expressed in CHO cells measured as S1P-induced [35S]GTP-gamma-S uptake. The format is functional, cell-based.
Sequence of Sphingosine 1-phosphate receptor 3 (Q99500 whole entry): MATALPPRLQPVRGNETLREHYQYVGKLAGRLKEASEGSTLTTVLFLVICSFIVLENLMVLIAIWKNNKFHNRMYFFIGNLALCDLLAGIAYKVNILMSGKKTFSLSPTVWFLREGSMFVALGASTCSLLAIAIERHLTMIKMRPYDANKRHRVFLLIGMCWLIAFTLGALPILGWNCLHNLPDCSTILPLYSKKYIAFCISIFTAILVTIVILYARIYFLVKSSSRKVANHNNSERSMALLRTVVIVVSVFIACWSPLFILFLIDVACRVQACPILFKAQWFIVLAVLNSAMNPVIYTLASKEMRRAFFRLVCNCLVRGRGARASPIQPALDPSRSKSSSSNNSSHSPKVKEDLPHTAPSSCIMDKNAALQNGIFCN
Series [9] relates to Rattus norvegicus. The experiment in a line: Median graft survival time in Lewis rat skin allograft model at 4.5 mg/kg/day. The format is functional.
Series [10] concerns the target Sphingosine 1-phosphate receptor 5 (Homo sapiens, UniProt Q9H228). Description: Agonist activity at S1P5 receptor expressed in CHO cells measured as S1P-induced [35S]GTP-gamma-S uptake. The format is functional, cell-based.
Series [11] addresses Sphingosine 1-phosphate receptor 2 (Homo sapiens, UniProt O95136). Description: Activity at S1P2 receptor expressed in CHO cells measured as S1P-induced [35S]GTP-gamma-S uptake. It counts as functional, cell-based.
Series [12] has as its system Rattus norvegicus. The experiment in a line: Median graft survival time in Lewis rat skin allograft model at 1.5 mg/kg/day. The format is functional.
Series [13] in a line: Volume of distribution in Sprague-Dawley rat at 1 mg/kg, iv and 2 mg/kg, po. The note with it: in vivo, read-out: Vss. The format is ADME, organism-based.
Series [14] concerns Rattus norvegicus. Description: Lowering of peripheral blood lymphocyte in Lewis rat at 1.5 mg/kg. The format is functional, organism-based. Set-up: dose 1.5 mg/kg.
The nature of series [15]: Plasma clearance in Sprague-Dawley rat at 1 mg/kg, iv and 2 mg/kg, po. It counts as ADME, organism-based.
Series [16] addresses Sphingosine 1-phosphate receptor 1 (Homo sapiens, UniProt P21453). Description: Agonist activity at S1P1 receptor expressed in CHO cells measured as S1P-induced [35S]GTP-gamma-S uptake. The format is functional, cell-based.

pEC50: −log10 of the molar value. The source made the active and inactive calls.

Sequence of Sphingosine 1-phosphate receptor 5 (Q9H228 whole entry): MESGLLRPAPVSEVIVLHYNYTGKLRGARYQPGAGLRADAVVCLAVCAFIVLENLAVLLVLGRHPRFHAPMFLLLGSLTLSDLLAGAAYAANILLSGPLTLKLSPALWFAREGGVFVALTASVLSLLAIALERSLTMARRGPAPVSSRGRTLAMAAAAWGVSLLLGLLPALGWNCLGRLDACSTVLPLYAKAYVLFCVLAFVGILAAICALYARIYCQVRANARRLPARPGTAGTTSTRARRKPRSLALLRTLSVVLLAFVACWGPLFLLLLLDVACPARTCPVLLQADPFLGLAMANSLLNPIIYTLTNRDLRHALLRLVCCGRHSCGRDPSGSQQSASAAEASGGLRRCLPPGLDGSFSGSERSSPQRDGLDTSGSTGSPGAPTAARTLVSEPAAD
Sequence of Sphingosine 1-phosphate receptor 1 (P21453 whole entry): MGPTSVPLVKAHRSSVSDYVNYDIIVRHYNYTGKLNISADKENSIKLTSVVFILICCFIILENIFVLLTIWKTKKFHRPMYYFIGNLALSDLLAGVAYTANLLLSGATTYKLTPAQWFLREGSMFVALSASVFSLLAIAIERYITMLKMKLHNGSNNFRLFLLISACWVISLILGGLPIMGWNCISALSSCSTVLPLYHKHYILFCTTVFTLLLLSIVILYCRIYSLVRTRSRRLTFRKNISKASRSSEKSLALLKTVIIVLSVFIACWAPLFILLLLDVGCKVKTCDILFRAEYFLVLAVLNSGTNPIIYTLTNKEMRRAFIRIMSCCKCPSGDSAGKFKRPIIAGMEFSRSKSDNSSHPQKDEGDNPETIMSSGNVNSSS
Sequence of Sphingosine 1-phosphate receptor 2 (O95136 whole entry): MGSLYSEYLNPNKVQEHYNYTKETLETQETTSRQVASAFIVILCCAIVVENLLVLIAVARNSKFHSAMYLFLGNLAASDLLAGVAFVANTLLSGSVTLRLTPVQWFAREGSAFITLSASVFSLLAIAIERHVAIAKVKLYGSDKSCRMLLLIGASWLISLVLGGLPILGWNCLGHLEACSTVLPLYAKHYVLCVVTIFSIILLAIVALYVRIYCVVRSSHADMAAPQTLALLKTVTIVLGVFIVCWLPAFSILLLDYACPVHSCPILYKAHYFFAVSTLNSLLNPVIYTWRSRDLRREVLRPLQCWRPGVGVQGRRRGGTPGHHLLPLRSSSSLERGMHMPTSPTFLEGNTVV

Take `Cc1cc(CCC(=O)O)ccc1-c1noc(-c2ccc(OCC(F)(F)F)c(C#N)c2)n1`: the half-life in [1] was 36 min. The pEC50 in [2] was less than 5.00; in series [8], 5.80; in series [10], 7.36; in series [11], less than 5.00; in [16], 9.96. Also, the result in the series with Mus musculus, in the series on Rattus norvegicus [3], in the series with Rattus norvegicus [4] and in the series on Rattus norvegicus [14] was Active. Further, the Selectivity ratio in the series listed under Homo sapiens [5] is 400; in the series filed under Homo sapiens [6], 16000. For the same molecule, the bioavailability in series [7] came out at 59%. Further, the MST came to 14 days in the series with Rattus norvegicus [9] and 13 days in the series on Rattus norvegicus [12]. Moreover, in series [13], the Vd was determined as 0.1 L/kg. This molecule showed a clearance in series [15] of 1.2 mL/min/kg.

A word on the half-life: it is the time needed for the level to fall by half in the phase considered. Read a low half-life as fast loss. Broadly, the pEC50 is the EC50 on a negative log10 scale, so that one unit is a factor of ten. Low readings indicate a large EC50, high ones a small EC50. A word on the bioavailability: it is dose-corrected exposure relative to a reference, in per cent.

Values taken from ChEMBL document CHEMBL1138937, “Discovery of 3-arylpropionic acids as potent agonists of sphingosine-1-phosphate receptor-1 (S1P1) with high selectivity against all other known S1P receptor subtypes” (Bioorg Med Chem Lett, 2006).
